These results are taken from patent publication US9309224B2 (Deciphera Pharmaceuticals, LLC, priority 2013, dated 2016).

SMILES strings stand for the structures. A value given as a limit tells only on which side of the number the result lay.

Assay [1] deals with T1, unphosphorylated c-FMS kinase (uFMS, Seq. ID no. 1) (Homo sapiens, UniProt P07333).
T1 construct: purchased Millipore
T1 sequence (P07333 538-972): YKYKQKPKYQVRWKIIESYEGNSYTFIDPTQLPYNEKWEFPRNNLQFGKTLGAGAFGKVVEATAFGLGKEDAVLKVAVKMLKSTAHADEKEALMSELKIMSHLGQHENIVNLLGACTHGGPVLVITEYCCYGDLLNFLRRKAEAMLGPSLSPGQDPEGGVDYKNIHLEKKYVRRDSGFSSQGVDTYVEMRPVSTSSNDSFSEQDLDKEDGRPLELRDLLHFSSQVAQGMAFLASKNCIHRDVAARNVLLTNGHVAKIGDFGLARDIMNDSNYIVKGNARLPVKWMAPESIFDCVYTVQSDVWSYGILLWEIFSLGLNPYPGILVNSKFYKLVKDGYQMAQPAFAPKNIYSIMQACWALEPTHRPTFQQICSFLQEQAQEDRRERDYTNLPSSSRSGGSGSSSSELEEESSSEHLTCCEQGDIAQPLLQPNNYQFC
Description: uFMS kinase assay (pyruvate kinase/lactate dehydrogenase coupled). In kind it is biochemical. The note with it: ATP 500 μM.

A further assay relates to M-NFS-60 cells. Description: M-NFS-60 cell proliferation assay. In kind it is cell-based. The following applies: 67 h incubation, resazurin. On the technique in general: The colour change of resazurin is a common sign of viable cells or microbes.
The next assay relates to osteoclast precursors. Description: Osteoclast tartrate-resistant acid phosphatase assay. Type of assay: cell-based. The following applies: Osteoclast; 7-14 days, RANKL and M-CSF. On the procedure:
Diluted compound was transferred to a 384-well black clear bottom plate. Two-thousand five hundred osteoclast precursors (Lonza, Walkersville, Md.) were added per well in growth media containing Receptor Activator of Nuclear Factor Kappa-beta ligand (RANKL) and M-CSF (R&D Systems, Minneapolis, Minn.). Plates were incubated for 7-14 days at 37 degrees Celsius, 5% CO2, and 95% humidity to allow differentiation of osteoclast precursors. […] Tartrate-resistant acid phosphatase activity in the supernatant samples was determined using an acid phosphatase assay kit (Sigma, St. Louis, Mo.). Absorbance was measured at 550 nm using a plate reader. Data was analyzed using Prism software (Graphpad, San Diego, Calif.) to calculate IC50 values.

The target in assay [2] is T2, unphosphorylated c-KIT kinase (uKIT, Seq. ID no. 2) (Homo sapiens, UniProt P10721).
T2 construct: uKit with N-terminal GST fusion used for
T2 sequence (P10721 with tags, fused parts or gaps): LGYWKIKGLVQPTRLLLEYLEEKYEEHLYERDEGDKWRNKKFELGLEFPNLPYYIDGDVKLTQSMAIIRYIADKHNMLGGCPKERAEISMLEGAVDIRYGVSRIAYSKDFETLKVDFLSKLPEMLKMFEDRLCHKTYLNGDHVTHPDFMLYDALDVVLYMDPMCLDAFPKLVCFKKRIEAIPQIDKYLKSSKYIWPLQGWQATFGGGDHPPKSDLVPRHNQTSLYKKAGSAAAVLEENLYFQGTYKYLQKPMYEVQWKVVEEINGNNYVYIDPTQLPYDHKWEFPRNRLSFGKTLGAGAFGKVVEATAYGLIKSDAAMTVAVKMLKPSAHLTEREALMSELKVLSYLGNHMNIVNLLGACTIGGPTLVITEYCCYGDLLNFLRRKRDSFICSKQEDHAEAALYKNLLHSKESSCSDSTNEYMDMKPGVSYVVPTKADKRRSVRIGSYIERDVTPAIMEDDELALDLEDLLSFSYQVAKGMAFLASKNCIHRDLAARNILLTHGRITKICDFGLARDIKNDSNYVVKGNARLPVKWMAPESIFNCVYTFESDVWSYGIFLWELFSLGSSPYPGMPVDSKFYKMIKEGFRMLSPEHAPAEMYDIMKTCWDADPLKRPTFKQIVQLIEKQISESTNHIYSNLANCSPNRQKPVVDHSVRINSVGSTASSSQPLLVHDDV
Description: uKit kinase assay (pyruvate kinase/lactate dehydrogenase coupled). Type of assay: biochemical. The note with it: ATP 2000 μM.
Description: In this assay, the oxidation of NADH (thus the decrease at A340 nm) was continuously monitored spectrophometrically. […] The inhibition reaction was started by mixing serial diluted test compound with the above reaction mixture. The absorption at 340 nm was monitored continuously for 4 hours at 30° C. on Synergy 2 plate reader (BioTech).

Assay [3] deals with T3, unphosphorylated PDGFRβ kinase (uPDGFRβ, Seq. ID No. 3) (Homo sapiens, UniProt P09619).
T3 construct: purchased DeCode
T3 sequence (P09619 557-1105): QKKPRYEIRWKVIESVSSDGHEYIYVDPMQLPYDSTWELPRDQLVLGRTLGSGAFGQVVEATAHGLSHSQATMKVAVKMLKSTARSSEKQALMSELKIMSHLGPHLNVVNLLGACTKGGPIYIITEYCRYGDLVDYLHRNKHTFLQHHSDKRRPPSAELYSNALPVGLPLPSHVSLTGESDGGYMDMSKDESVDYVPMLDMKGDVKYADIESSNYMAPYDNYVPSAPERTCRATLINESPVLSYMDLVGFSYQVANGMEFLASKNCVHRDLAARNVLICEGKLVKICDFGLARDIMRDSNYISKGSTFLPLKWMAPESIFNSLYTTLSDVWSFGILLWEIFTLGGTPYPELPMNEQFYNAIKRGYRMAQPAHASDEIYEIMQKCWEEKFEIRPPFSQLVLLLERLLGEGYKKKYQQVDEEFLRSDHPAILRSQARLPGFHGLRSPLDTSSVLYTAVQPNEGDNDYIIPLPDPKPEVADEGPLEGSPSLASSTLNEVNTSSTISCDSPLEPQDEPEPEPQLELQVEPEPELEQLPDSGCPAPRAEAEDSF
Description: Unphosphorylated PDGFRβ kinase assay (pyruvate kinase/lactate dehydrogenase coupled). In kind it is biochemical. The following applies: ATP 500 μM. The text has this:
Unphosyhorylated PDGFRβ (uPDGFRβkinase (Seq. ID No. 3) assay

Description for M-NFS-60 cells: M-NFS-60 Cell Proliferation Assay A serial dilution of test compound was dispensed into a 384-well black clear bottom plate (Corning, Corning, N.Y.). Two thousand five hundred cells were added per well in 50 μL complete growth medium. […] IC50 values were calculated from a series of percent inhibition values determined at a range of inhibitor concentrations using software routines as implemented in the GraphPad Prism software package.

For `CC(=O)Nc1cc(Oc2ccc(NC(=O)NC(=O)C3CCCCC3)nc2)ccn1` [Example 1, N-((5-((2-acetamidopyridin-4-yl)oxy)pyridin-2-yl)carbamoyl)cyclohexanecarboxamide], the IC50 – broadly, the point on the concentration scale where inhibition reaches its midpoint – is 0.01 to 0.1 µM in assay [1], less than 0.01 µM with M-NFS-60 cells, less than 0.01 µM in the assay with osteoclast precursors and 0.1 to 1 µM in assay [2].
`CC(=O)Nc1cc(Oc2ccc(NC(=O)NC(=O)CC3CCCCC3)nc2)ccn1` [Example 4, N-((5-((2-acetamidopyridin-4-yl)oxy)pyridin-2-yl)carbamoyl)-2-cyclohexylacetamide]: the IC50 in assay [1] is less than 0.01 µM; in the assay on M-NFS-60 cells, less than 0.01 µM; in the assay on osteoclast precursors it was less than 0.01 µM; in assay [2], 0.01 to 0.1 µM.
Regarding `CC(=O)Nc1cc(Oc2ccc(NC(=O)NC(=O)CC3CCOCC3)nc2)ccn1` [Example 6, N-((5-((2-acetamidopyridin-4-yl)oxy)pyridin-2-yl)carbamoyl)-2-(tetrahydro-2H-pyran-4-yl)acetamide], the IC50 in assay [1] is 0.01 to 0.1 µM; in the assay on M-NFS-60 cells, 0.1 to 1 µM; in the assay with osteoclast precursors, 0.01 to 0.1 µM; in assay [2], greater than 1 µM; in assay [3] it was 0.01 to 0.1 µM.
Consider `CC(=O)Nc1cc(Oc2ccc(NC(=O)NC(=O)C(C)C)nc2C)ccn1` [Example 10, N-((5-((2-acetamidopyridin-4-yl)oxy)-6-methylpyridin-2-yl)carbamoyl)isobutyramide], for which the IC50 in assay [1] is 0.01 to 0.1 µM; in the assay with M-NFS-60 cells, 0.01 to 0.1 µM; with osteoclast precursors it was 0.01 to 0.1 µM; in assay [2] it was greater than 1 µM; in assay [3] it was 0.1 to 1 µM.
Regarding `CC(=O)Nc1cc(Oc2ccc(NC(=O)NC(=O)C3CCOC3)nc2C)ccn1` (centres unmarked) [Example 14, N-((5-((2-acetamidopyridin-4-yl)oxy)-6-methylpyridin-2-yl)carbamoyl)tetrahydrofuran-3-carboxamide], the IC50 in assay [1] was 0.1 to 1 µM; with M-NFS-60 cells it was 0.01 to 0.1 µM; with osteoclast precursors, 0.1 to 1 µM; in assay [2], greater than 1 µM; in assay [3], greater than 1 µM.
With `CC(=O)Nc1cc(Oc2ccc(NC(=O)NC(=O)C(C)C)nc2)ccn1` [Example 15, N-((5-((2-acetamidopyridin-4-yl)oxy)pyridin-2-yl)carbamoyl)isobutyramide], the IC50 is 0.01 to 0.1 µM in assay [1]; 0.01 to 0.1 µM in the assay on M-NFS-60 cells; 0.01 to 0.1 µM in the assay on osteoclast precursors; greater than 1 µM in assay [2]; 0.1 to 1 µM in assay [3].
Turning to `CCC(=O)NC(=O)Nc1ccc(Oc2ccnc(NC(C)=O)c2)cn1` [Example 16, N-((5-((2-acetamidopyridin-4-yl)oxy)pyridin-2-yl)carbamoyl)propionamide], the IC50 in assay [1] was 0.1 to 1 µM; in the assay with M-NFS-60 cells it was 0.1 to 1 µM; in the assay with osteoclast precursors it was 0.1 to 1 µM; in assay [2], greater than 1 µM; in assay [3], greater than 1 µM.
On to `CC(C)(C)C(=O)NC(=O)Nc1ccc(Oc2ccnc(NC(=O)C3CC3)c2)cn1` [Example 18, N-(4-((6-(3-pivaloylureido)pyridin-3-yl)oxy)pyridin-2-yl)cyclopropanecarboxamide], for which the IC50 is less than 0.01 µM in assay [1]; less than 0.01 µM with M-NFS-60 cells; less than 0.01 µM in the assay on osteoclast precursors; 0.1 to 1 µM in assay [2]; 0.1 to 1 µM in assay [3].
Take `CC(=O)Nc1cc(Oc2ccc(NC(=O)NC(=O)C3CCOC3)nc2)ccn1` (centres unmarked) [Example 22, N-((5-((2-acetamidopyridin-4-yl)oxy)pyridin-2-yl)carbamoyl)tetrahydrofuran-3-carboxamide]: the IC50 was 0.01 to 0.1 µM in assay [1]; 0.1 to 1 µM in the assay on M-NFS-60 cells; 0.01 to 0.1 µM with osteoclast precursors; greater than 1 µM in assay [2]; greater than 1 µM in assay [3].
On to `CC(=O)Nc1cc(Oc2ccc(NC(=O)NC(=O)C3CC4CCC3O4)nc2)ccn1` (centres unmarked) [Example 28, N-((5-((2-acetamidopyridin-4-yl)oxy)pyridin-2-yl)carbamoyl)-7-oxabicyclo[2.2.1]heptane-2-carboxamide], for which the IC50 in assay [1] was less than 0.01 µM; with M-NFS-60 cells, 0.01 to 0.1 µM; in the assay on osteoclast precursors, less than 0.01 µM; in assay [2], 0.1 to 1 µM.
For `CC(=O)Nc1cc(Oc2ccc(NC(=O)NC(=O)C3CC4CCC3O4)nc2C)ccn1` (centres unmarked) [Example 29, N-((5-((2-acetamidopyridin-4-yl)oxy)-6-methylpyridin-2-yl)carbamoyl)-7-oxabicyclo[2.2.1]heptane-2-carboxamide], the IC50 in assay [1] is 0.01 to 0.1 µM; in the assay with M-NFS-60 cells, 0.01 to 0.1 µM; with osteoclast precursors, 0.01 to 0.1 µM; in assay [2], greater than 1 µM.
On to `CCC(=O)Nc1cc(Oc2ccc(NC(=O)NC(=O)C3CCOCC3)nc2)ccn1` [Example 32, N-((5-((2-propionamidopyridin-4-yl)oxy)pyridin-2-yl)carbamoyl)tetrahydro-2H-pyran-4-carboxamide], for which the IC50 was 0.01 to 0.1 µM in assay [1]; 0.01 to 0.1 µM in the assay with M-NFS-60 cells; 0.01 to 0.1 µM with osteoclast precursors; greater than 1 µM in assay [2]; 0.01 to 0.1 µM in assay [3].
As for `O=C(NC(=O)C1CCOCC1)Nc1ccc(Oc2ccnc(NC(=O)C3CC3)c2)cn1` [Example 35, N-((5-((2-(cyclopropanecarboxamido)pyridin-4-yl)oxy)pyridin-2-yl)carbamoyl)tetrahydro-2H-pyran-4-carboxamide], the IC50 in assay [1] is less than 0.01 µM; in the assay on M-NFS-60 cells, less than 0.01 µM; with osteoclast precursors, less than 0.01 µM; in assay [2] it was 0.1 to 1 µM; in assay [3] it was less than 0.01 µM.
In the case of `CCC(=O)Nc1cc(Oc2ccc(NC(=O)NC(=O)C3(OC)CC3)nc2)ccn1` [Example 39, 1-methoxy-N-((5-((2-propionamidopyridin-4-yl)oxy)pyridin-2-yl)carbamoyl)cyclopropanecarboxamide], the IC50 in assay [1] is 0.01 to 0.1 µM; in the assay with M-NFS-60 cells, 0.01 to 0.1 µM; with osteoclast precursors, 0.01 to 0.1 µM; in assay [2], greater than 1 µM; in assay [3], greater than 1 µM.
As for `COC(C)(C)C(=O)NC(=O)Nc1ccc(Oc2ccnc(NC(=O)C3CCN(C)CC3)c2)cn1` [Example 40, N-(4-((6-(3-(2-methoxy-2-methylpropanoyl)ureido)pyridin-3-yl)oxy)pyridin-2-yl)-1-methylpiperidine-4-carboxamide], the IC50 in assay [1] is 0.01 to 0.1 µM; with M-NFS-60 cells it was 0.1 to 1 µM; in the assay with osteoclast precursors, 0.01 to 0.1 µM; in assay [2], greater than 1 µM.
In the case of `CC(=O)Nc1cc(Oc2ccc(NC(=O)NC(=O)C3(C)CCC3)nc2C)ccn1` [Example 43, N-((5-((2-acetamidopyridin-4-yl)oxy)-6-methylpyridin-2-yl)carbamoyl)-1-methylcyclobutanecarboxamide], the IC50 is less than 0.01 µM in assay [1]; less than 0.01 µM in the assay on M-NFS-60 cells; less than 0.01 µM with osteoclast precursors; 0.1 to 1 µM in assay [2]; 0.1 to 1 µM in assay [3].
In the case of `CC(=O)Nc1cc(Oc2ccc(NC(=O)NC(=O)C3(C)CCC3)nc2)ccn1` [Example 44, N-((5-((2-acetamidopyridin-4-yl)oxy)pyridin-2-yl)carbamoyl)-1-methylcyclobutanecarboxamide], the IC50 in assay [1] was less than 0.01 µM; with M-NFS-60 cells, less than 0.01 µM; in the assay on osteoclast precursors, less than 0.01 µM; in assay [2], 0.1 to 1 µM; in assay [3], 0.1 to 1 µM.
In the case of `COC1(C(=O)NC(=O)Nc2ccc(Oc3ccnc(NC(=O)C4CCN(C)CC4)c3)cn2)CC1` [Example 49, N-(4-((6-(3-(1-methoxycyclopropanecarbonyl)ureido)pyridin-3-yl)oxy)pyridin-2-yl)-1-methylpiperidine-4-carboxamide], the IC50 is 0.01 to 0.1 µM in assay [1]; greater than 1 µM in the assay with M-NFS-60 cells; 0.1 to 1 µM in the assay with osteoclast precursors; greater than 1 µM in assay [2]; greater than 1 µM in assay [3].
On to `CN(C)C(=O)Nc1cc(Oc2ccc(NC(=O)NC(=O)C3(C)CC3)nc2)ccn1` [Example 50, N-((5-((2-(3,3-dimethylureido)pyridin-4-yl)oxy)pyridin-2-yl)carbamoyl)-1-methylcyclopropanecarboxamide], for which the IC50 in assay [1] is less than 0.01 µM; in the assay with M-NFS-60 cells, less than 0.01 µM; with osteoclast precursors it was less than 0.01 µM; in assay [2], 0.01 to 0.1 µM; in assay [3] it was 0.01 to 0.1 µM.
As for `CN(C)C(=O)Nc1cc(Oc2ccc(NC(=O)NC(=O)C3CCOCC3)nc2)ccn1` [Example 51, N-((5-((2-(3,3-dimethylureido)pyridin-4-yl)oxy)pyridin-2-yl)carbamoyl)tetrahydro-2H-pyran-4-carboxamide], the IC50 in assay [1] was less than 0.01 µM; with M-NFS-60 cells, 0.01 to 0.1 µM; in the assay with osteoclast precursors it was 0.01 to 0.1 µM; in assay [2], 0.1 to 1 µM; in assay [3] it was 0.01 to 0.1 µM.
